The text below walks through data of US8569356B2, “Cyclin dependent kinase inhibitors” (University of Florida Research Foundation, Inc., priority 2005, dated 2013).

Entries after “also recorded” stand apart in the source; their conditions may differ.

One test deals with PC3 prostate tumor cells. Description: Mouse xenograft tumor model, PC3. Format: in vivo, SCID mice. Particulars: intratumoral, 1:50 dilution (2 mM), compared with 1:50 DMSO in PBS in two controls. As to the method:
A compound of the invention (Compound 1) was tested in a mouse xenograft tumor model to determine whether the compound can inhibit tumor growth in vivo.
SCID mice were subcutaneously implanted with PC3 prostate tumor cells in the flank and were administered intratumorally with controls (DMSO) or a test compound.
The two control animals were sacrificed when the total tumor volume (L×W×H) exceeded 1.5 cc. The treated animal was sacrificed because a small but significant skin ulceration was developing over the tumor.

The test system of test [1] is BT549 breast cancer cells. Description: 3H-thymidine incorporation assay, BT549. Format: cell-based, human. On the procedure: FIG. 4. Compounds #1, #7, and #11 inhibit proliferation of BT549 breast cancer cells. BT549 cells were treated for 24 hours with the indicated “Pocket #1” compounds. The effect of treatment on cell proliferation was quantitated by measuring the amount of ^3H-Thymidine incorporated into cellular DNA over a two hour time interval. The results are presented as the average of triplicate determinations ±standard deviation.
FIG. 5. Compounds predicted to bind to “Pocket #2” inhibit proliferation of BT549 breast cancer cells. BT549 cells were treated for 24 hours with the indicated “Pocket #2” compounds. The effect of treatment on cell proliferation was quantitated by measuring the amount of ^3H-Thymidine incorporated into cellular DNA over a two hour time interval. The results are presented as the average of triplicate determinations ±standard deviation.
Additional ^3H-thymidine incorporation assays were performed to determine whether the “Pocket #2” binding drugs (see Table 2) inhibit cell proliferation at concentrations lower than 100 μM.

Test [2] concerns prostate cancer cell line, Gs-α. Description: Matrigel cell invasion assay. Format: cell-based. The settings on record: Matrigel invasion chambers, 36 h. On the procedure: A cell invasion assay was performed on an aggressive prostate cancer cell line, Gs-α, to determine the effects of selected compounds that inhibit cell proliferation.
The experiment was performed in six-well Matrigel two-tier invasion chambers (Collaborative Biomedical Products, Bedford, Mass., USA), using a protocol similar to that used successfully by others (see, e.g., Chien J, Wong E, Nikes E et al., Oncogene 1999; 18: 3376-3382, incorporated herein by reference). […]
While the membranes were still wet in culture dishes, the GFP-positive cells on the entire membrane were counted under fluorescent illumination. […] The total number of cells on the entire gel was counted. The data from invasion assay were corrected for cell growth during experimental periods as follows: the experimental cells were plated at a density of 10^5 cells per well in six-well control inserts in chemoattractant medium and increase in cell number were determined after 48 h. […] The results were expressed as mean±standard deviation. […]
Significance of differences in Percent Invasion according to treatment (or transfection of Metafectene vehicle alone) were assessed by Student's t-test.

Test [3] has as its system multiple human cancer cell lines. Particulars: NCI screen, read-out: average 50% inhibitory concentration (IC50), proliferation; cited from earlier work.
The subject of a further test is PC-3 tumor cells. Description: PC-3 tumor in mice, intratumoral injection with CD44 RNA interference. The class given is in vivo. Particulars: combined with CD44 RNA interference, after 11 days of injection, three treated animals. On the procedure: The effect of 4-tert-Butyl-2-nitroaniline when combined with CD44 RNA interference was therefore investigated.
Seven-wk-old mice (Jackson Laboratory, Bar Harbor, Me.) were injected in the right flank with 2×10^6 PC-3 tumor cells in 500 μl liquid Matrigel. […] By 14 days after injection, a tumor mass was palpable and at 27 days, 4-tert-Butyl-2-nitroaniline and CD44 RNAi therapy commenced. Gene transfection was controlled for quantitation by injecting a constant 10 μg of vector. This approach involved mixing volume of DNA containing 10 μg of pU6BS (and subsequently pTracer) plasmid having the CD44 RNAi construct with 10 μl of Metafectene before injection into the tumor. Both Metafectene and DNA were diluted separately in 100 μl of sterile serum-free RPMI before mixing (see, e.g., Iczkowski K A, Omara-Opyene A L, and Klösel R., Molecular Biotechnology 2004; 28:97-103). The mixture was then allowed to stand for 30 minutes before injection to allow the formation of Metafectene:DNA complexes.
Intra-tumoral injection was performed five times weekly, angling the needle at different areas of the tumor during a given injection as well as varying the injection site for each injection occasion. Control animals were injected with 100 μl consisting of 50 μl empty vector/medium plus 50 μl of Metafectene.

A further test relates to DU145 cells. Description: 3H-thymidine incorporation assay, DU145. Particulars: 100 μM, 24 hours. The class given is cell-based, human. From the text:
(§1) FIG. 2. In silico molecular docking and preliminary analysis of potential Cyclin/Cdk2 inhibitors. (A) Cyclin A/Cdk2/p27 complex with spheres docked into the binding pocket (Pocket #1) and the pocket enclosed in a scoring grid (rectangular box). (B) Binding cleft shown filled with spheres, the top 10 hits superimposed into the binding pocket (All Hits), and the predicted mode of binding of individual hits in the Cyclin A/Cdk2/p27 pocket (Hits #3-10). (C) NMuMG (black bars) or DU145 cells (open bars) were treated for 24 hours with 100 μM of the indicated compounds and ^3H-thymidine incorporation was measured to assess rates of cell proliferation. Roscovitine is a known Cdk inhibitor and was included as a positive control. DMSO (0.1%) was included as a vehicle control. (D) Morphological change induced by 100 μM Hit #10 in NMuMG and DU145 cells after treatment for 24 hours.
(§2) Labeled thymidine (^3H-thymidine) incorporation assays were used to screen compounds at a concentration of 100 μM using mouse mammary epithelial cells and the human prostate cancer cell line DU145.
Human prostate cancer DU145 cells were plated at 30,000 cells per well in 24-well plates and allowed to attach for 24 hours. The cells were treated for 24 hours with either 100 μM of the indicated compounds, 0.1% DMSO as a vehicle control, or left untreated. The cells were pulsed with ^3H-thymidine for two hours. The cells were fixed in 10% trichloroacetic acid and washed a total of three times with 10% trichloroacetic acid. The ^3H-thymidine-labeled DNA was dissolved in 0.2% NaOH, mixed with scintillation fluid, and the associated radioactivity quantitated using a scintillation counter. These experiments were performed in triplicate and the results are presented as the average thymidine incorporation±standard deviation. […]

In test [4] the target is T1, Cdk4 (Homo sapiens, UniProt P11802).
T1 construct: endogenous in cells; host or cells: BT549
T1 sequence (P11802 whole entry): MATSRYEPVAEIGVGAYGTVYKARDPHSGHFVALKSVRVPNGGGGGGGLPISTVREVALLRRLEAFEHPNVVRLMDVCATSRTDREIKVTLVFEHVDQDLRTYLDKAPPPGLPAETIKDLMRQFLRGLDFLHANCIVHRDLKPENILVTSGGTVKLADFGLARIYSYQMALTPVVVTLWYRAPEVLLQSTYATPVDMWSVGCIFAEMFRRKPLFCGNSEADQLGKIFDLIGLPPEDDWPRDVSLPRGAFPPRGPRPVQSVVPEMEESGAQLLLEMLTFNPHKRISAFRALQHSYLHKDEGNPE
Description: Immunoblot of cellular Cdk4 level in BT549 cells. The class given is cell-based. Particulars: 24 or 48 hours, time- and dose-dependent. As to the method: (§3) BT549 cells were treated with the indicated Pocket #1 compounds for the indicated intervals. Cell lysates were prepared and the amounts of Cdk1, Cdk2, and Cdk4 were determined by immunoblot. Actin staining serves as a loading control. DMSO serves as a vehicle control.
(§4) Human breast cancer BT549 cells were treated as indicated for 24 or 48 hours with either 0.2% DMSO as a vehicle control, or compounds #3, #4, and #7 at the indicated concentrations. Cell lysates were prepared, normalized for protein content, resolved by SDS-PAGE and the proteins transferred to nitrocellulose. Levels of Cdk1, Cdk2, and Cdk4 were measured using primary antibodies specific for these proteins, followed by alkaline-phosphatase-conjugated secondary antibodies and colorimetric detection using the substrate NBT/BCIP.
In general terms: In western blotting, separated proteins are transferred to a membrane and probed.

In test [5] the target is T2, Cdk1 (Homo sapiens, UniProt P06493).
T2 construct: endogenous in cells; host or cells: BT549
T2 sequence (P06493 whole entry): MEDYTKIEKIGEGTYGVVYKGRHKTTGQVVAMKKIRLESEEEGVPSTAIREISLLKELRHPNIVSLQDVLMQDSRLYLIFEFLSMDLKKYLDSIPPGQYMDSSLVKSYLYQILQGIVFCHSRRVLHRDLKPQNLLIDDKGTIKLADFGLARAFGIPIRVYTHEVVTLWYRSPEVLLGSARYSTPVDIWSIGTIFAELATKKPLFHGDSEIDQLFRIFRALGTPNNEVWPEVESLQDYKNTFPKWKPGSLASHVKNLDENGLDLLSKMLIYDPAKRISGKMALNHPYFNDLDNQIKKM
Description: Immunofluorescence microscopy of Cdk1 distribution. The class given is cell-based. The source says:
(§5) It appears that compounds of the invention can cause redistribution of Cdk1, Cdk2, and Cdk4 in cells.

In test [6] the target is T3, Cdk2 (Homo sapiens, UniProt P24941). Description: Immunofluorescence microscopy of Cdk2 distribution. Format: cell-based. Also noted: endogenous in cells. Particulars: MDA-MB-468 breast cancer cells, 24 hours. As to the method: FIG. 6. Immunofluorescence microscopy of cellular distribution of Cdks in the absence (upper panels) and presence (lower panels) of a compound of the invention. MDA-MB-468 breast cancer cells were treated with the indicated concentration of pocket 1 compound #7 for 24 hours. Immunofluorescence microscopy was performed using an antibody to Cdk2. […] These aggregates are most apparent at sites of cell-cell contact.
as §5

The target of test [7] is T2, Cdk1. Description: Immunoblot of cellular Cdk1 level in BT549 cells. The settings on record: 24 or 48 hours, time- and dose-dependent. Format: cell-based. As to the method:
as §3, §4

A further test concerns NMuMG cells. Description: 3H-thymidine incorporation assay, NMuMG. The class given is cell-based, mouse. Particulars: 100 μM, 24 hours.
Text: as §1, §2
Seven of the molecules identified in Example 1 as having the top estimated binding energies (Hits/Compounds 3, 4, 6, 7, 8, 9, and 10) were obtained and tested for their ability to induce cell cycle arrest of mouse mammary NMuMG and DU145 human prostatic carcinoma cell lines in ^3H-thymidine incorporation assays (FIG. 2C). […] Thus at least five of the ten top-ranked compounds are cell permeable and induce an appreciable arrest of cancer cell proliferation.

Test [8] deals with T3, Cdk2. Description: Immunoblot of cellular Cdk2 level in BT549 cells. The class given is cell-based. Also noted: endogenous in cells; host or cells: BT549. Particulars: 24 or 48 hours, time- and dose-dependent. As to the method:
as §3, §4

In test [9] the target is T1, Cdk4. Description: Immunofluorescence microscopy of Cdk4 distribution. Format: cell-based.
Text: as §5

`Cc1ccc(C(=O)/C=C/c2ccccc2)s1` [Compound 1]: the tumor growth result in the test on PC3 prostate tumor cells is recorded as “markedly reduced tumor growth”. Further, the “potency compared with Compound 7” value in test [1] is recorded as “more potent than Compound 7”. In addition, in [1] (24 hours), the “effective concentration for inhibition of proliferation” value is “low micromolar concentrations” and the “inhibition of proliferation (3H-thymidine incorporation)” value is recorded as “inhibit the proliferation”. Besides, the “cell invasiveness in vitro” value in test [2] is reported as “inhibit cell invasiveness”.
Regarding `COc1ccc2oc3cccc(NN(C)C)c3c(=O)c2c1` [Compound 2, 1-(N′,N′-Dimethyl-hydrazino)-7-methoxy-xanthen-9-one], in test [3], the IC50 is 12 µM.
`CC(C)(C)c1ccc(N)c([N+](=O)[O-])c1` [Compound 3, 4-tert-Butyl-2-nitroaniline]: the “decrease of tumor volume” value in the test with PC-3 tumor cells is on record as “more than 50%”.
Regarding `COc1ccc(C(C#N)=Cc2ccccn2)cc1` [Compound 7, 2-(4-methoxyphenyl)-3-pyridin-2-yl-prop-2-enenitrile], the “inhibition of cell proliferation (3H-thymidine incorporation)” value (from here on “inhibition of cell proliferation”) in the test with DU145 cells and with NMuMG cells was “significantly inhibited proliferation” each time. In addition, the “cellular level of Cdk4” value on Cdk4 [4] was “Decrease the Cellular Levels”. For the same compound, the Cdk1 localization entry on Cdk1 [5] was “aggregates appear primarily at cell-cell junctions”. Further, the Cdk2 localization entry at Cdk2 [6] was “aggregates appear primarily at cell-cell junctions; also recorded: change in Cdk2 localization consistent with aggregation”. Besides, the “cellular level of Cdk1” value on Cdk1 [7] is on record as “Decrease the Cellular Levels”. For the same compound, at Cdk2 [8], the “cellular level of Cdk2” value was “Decrease the Cellular Levels”. Besides, the Cdk4 localization result on Cdk4 [9] was “aggregates appear on top of the nuclei”. The “inhibition of proliferation (3H-thymidine incorporation)” value in test [1] (24 hours) was “inhibit the proliferation”.
Consider `c1ccc(OSOc2ccccc2)cc1` [Compound 10], for which, in the test with DU145 cells, the “inhibition of cell proliferation” value is “significantly inhibited proliferation” and the morphological change entry is “dramatic morphological change”. For the same compound, in the test with NMuMG cells, the “inhibition of cell proliferation” value is “significantly inhibited proliferation” and the morphological change result is “dramatic morphological change”.
Regarding `O=C(N/N=C\c1cc(Br)ccc1O)N/N=C/c1cc(Br)ccc1O` [VDW9], the “inhibition of proliferation (3H-thymidine incorporation)” value was “inhibited proliferation” in test [1] (2 μM, 24 hours) and “inhibited proliferation” in test [1] (10 μM, 24 hours).
